Consider 15 compounds from patent EP4818178A1, “PREPARATION AND USE OF PYRIMIDOTHIOPYRANONE KRAS MUTANT PROTEIN INHIBITOR” (Ya Therapeutics Inc, priority 2024, dated 2025).

Sequence of KRasG12D (P01116 1-188 isoform P01116-2 G12D): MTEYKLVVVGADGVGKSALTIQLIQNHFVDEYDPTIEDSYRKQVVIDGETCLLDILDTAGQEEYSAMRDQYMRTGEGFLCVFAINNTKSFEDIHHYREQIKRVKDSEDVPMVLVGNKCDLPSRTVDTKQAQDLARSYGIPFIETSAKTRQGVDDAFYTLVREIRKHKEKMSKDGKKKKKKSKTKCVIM

For this assay, the target named is KRasG12D (Homo sapiens, UniProt P01116, G12D). The assay is described as follows: KRAS inhibitory activity test, TR-FRET (inhibition of binding of KRasG12D to GTP, SOS/GTP nucleotide exchange). In kind it is biochemical. To be noted: read-out: IC50 values of the compounds for inhibiting KRAS enzymes, G12D. Here is the method:
• 1. […] Reagent Preparation: • a. Storage Reagents:
Prepare a 1L solution by mixing 20mL of 1000mM HEPES, 20mL of 500mM EDTA, 10mL of 5M sodium chloride, 0.1mL of 100% Tween 20, and 949.9mL of water. Sterilize by filtration and store at 4°C.
Prepare a 1L solution by mixing 20mL of 1000mM HEPES, 10mL of 1000mM magnesium chloride, 30mL of 5M sodium chloride, 0.05mL of 100% Tween 20, and 939.95mL of water. Sterilize by filtration and store at 4°C. 3) KRAS/Bodipy GDP/Tb-SA Mixture: Mix 9.5 µL of 95 µM KRasG12D protein with 440.5 µL of KRAS nucleotide exchange buffer. Incubate at room temperature for 1 hour. Then, mix with 8.4 µL of 17.9 µM Tb-SA, 1.8 µL of 5 mM Bodipy GDP, and 9539.8 µL of KRAS experimental buffer to prepare […]. After mixing, incubate at room temperature for 6 hours and store at -80°C.
• 1) KRAS Enzyme Solution: Mix 73.3 µL of KRAS/Bodipy GDP/Tb-SA mixture with 2126.7 µL of KRAS experimental buffer to prepare a 2200 µL solution. • 2) SOS/GTP Mixture
c. Experimental Procedure: Mix 1.59 µL of 166 µM SOS protein with 198 µL of 100 mM... GTP and 0.41 µL KRAS buffer were prepared to a 2200 µL solution. The stock solution concentration of the control compound was 1 mM, and the stock solution concentration of the test compound was 10 mM. 9 µL of the control compound and the test compound were transferred to a 384-LDV plate. The compound on the LDV plate was 3-fold diluted 10-point using Bravo. 9 nL of the compound on the LDV plate was transferred to the experimental plate using ECHO. 3 µL of a 3 nM Kras/0.5 nM TB-SA/30 nM BodipyGDP mixture and 3 µL of Ras buffer were added to each well of the experimental plate using a Dragonfly autopilot. The plate was centrifuged at 1000 rpm for 1 minute. The plate was incubated at room temperature for 1 hour. 3 µL of 120 nM SOS/9 mM KRAS buffer was added to each well of the experimental plate using a Dragonfly autopilot. The […] was centrifuged at 1000 rpm for 1 minute; the plate was incubated at room temperature for 1 hour; the plate was read and the data were recorded using Envision; the data were analyzed using Excel and Xlfit to calculate the IC50of the test compound. "++++" indicates IC50≤ 10 nM; "+++" indicates 10 nM < IC50≤ 100 nM; "++" indicates 100 nM < IC50≤ 2000 nM; "+" indicates 2000 nM < IC50.
`Cc1cc(N)nc([C@H]2Cc3nc(OC[C@@]45CCCN4C[C@H](F)C5)nc(N4CCC[C@@](C)(O)C4)c3CS2(=O)=O)c1C(F)(F)F` [Compound 8B, (7R)-7-(6-amino-4-methyl-3-(trifluoromethyl)pyridin-2-yl)-2-(((2R,7AS)-2-fluorotetrahydro-1H-pyrrolazin-7a(5H)-yl)methoxy)-4-((R)-3-hydroxy-3-methylpiperidin-1-yl) -7,8-dihydro-5H-thiopyrano[4,3-d]pyrimidine-6,6-dioxide]: the IC50 was in the range of 10 to 100 nM.

On to `Cc1cc(N)c(F)c([C@@H]2Cc3nc(OC[C@@]45CCCN4CC(=C(F)F)C5)nc(N4CC5CCC(C4)N5)c3CS2(=O)=O)c1C(F)(F)F` [Compound 9A, (7S)-7-(3-amino-2-fluoro-5-methyl-6-(trifluoromethyl)phenyl)-4-(3,8-diazabicyclo[3. 2.1]octane-3-yl)-2-(((S)-2-(difluoromethylene)tetrahydro-1H-pyrrolazin-7a(5H)-yl)methoxy)-7,8-dihydro-5H-thiopyrano[4,3-d]pyrimidine-6,6-dioxide], for which the IC50 was at most 10 nM.

Regarding `Cc1cc(N)c(F)c(C2Cc3nc(OC[C@@]45CCCN4CC(=CF)C5)nc(N4CC5CCC(C4)N5)c3CS2(=O)=O)c1C(F)(F)F` (stereo partly drawn) [Compound 10, 7-7-(3-amino-2-fluoro-5-methyl-6-(trifluoromethyl)phenyl)-4-(3,8-diazabicyclo[3.2.1]octane-3-yl)-2-(((S)-2-(fluoromethylene)tetrahydro-1H-pyrrolazin-7a(5H)-yl)methoxy) -7,8-dihydro-5H-thiopyrano[4,3-d]pyrimidine-6,6-dioxide], the IC50 was at most 10 nM.

For the compound `Cc1cc(N)c(F)c([C@@H]2Cc3nc(OC[C@@]45CCCN4CC(=C(F)F)C5)nc(N4CC5CCC(C4)N5)c3CS2(=O)=O)c1C(F)(F)F` [Compound 10A, (7S)-7-(3-amino-2-fluoro-5-methyl-6-(trifluoromethyl)phenyl)-4-(3,8-diazabicyclo[3. 2.1]octane-3-yl)-2-(((S)-2-(difluoromethylene)tetrahydro-1H-pyrrolazin-7a(5H)-yl)methoxy)-7,8-dihydro-5H-thiopyrano[4,3-d]pyrimidine-6,6-dioxide], the IC50 was at most 10 nM.

As to `C=C1CN2CCC[C@@]2(COc2nc3c(c(N4CC5CCC(C4)N5)n2)CS(=O)(=O)C(c2c(F)c(N)cc(C)c2C(F)(F)F)C3)C1` (stereo partly drawn) [Compound 11, 7-(3-amino-2-fluoro-5-methyl-6-(trifluoromethyl)phenyl)-4-(3,8-diazabicyclo[3.2.1]octane-3-yl)-2-(((S)-2-(methylene)tetrahydro-1H-pyrrolazin-7a(5H)-yl)methoxy)-7,8-d ihydro-5H-thiopyrano[4,3-d]pyrimidine-6,6-dioxide], the IC50 was at most 10 nM.

In the case of `C=C1CN2CCC[C@@]2(COc2nc3c(c(N4CC5CCC(C4)N5)n2)CS(=O)(=O)[C@H](c2c(F)c(N)cc(C)c2C(F)(F)F)C3)C1` [Compound 11A, (7S)-7-(3-amino-2-fluoro-5-methyl-6-(trifluoromethyl)phenyl)-4-(3,8-diazabicyclo[3. 2.1]octane-3-yl)-2-(((S)-2-(methylene)tetrahydro-1H-pyrrolazin-7a(5H)-yl)methoxy)-7,8-dihydro-5H-thiopyrano[4,3-d]pyrimidine-6,6-dioxide], the IC50 was at most 10 nM.

On to `Cc1cc(N)nc(C2Cc3nc(OC[C@@]45CCCN4CC(=C(F)F)C5)nc(N4CC5CCC(C4)N5)c3CS2(=O)=O)c1C(F)(F)F` (stereo partly drawn) [Compound 18, 7-(6-amino-4-methyl-3-(trifluoromethyl)pyridin-2-yl)-2-(((S)-2-(difluoromethylene)tetrahydro-1H-pyrrolazin-7a(5H)-yl)methoxy)-4-(3,8-diazabicyclo[3.2.1]octane-3-yl)-7,8-dihydro-5H-thiopyrano[4,3-d]pyrimidine-6,6-dioxide], for which the IC50 was at most 10 nM.

With `Cc1cc(N)nc([C@@H]2Cc3nc(OC[C@@]45CCCN4CC(=C(F)F)C5)nc(N4CC5CCC(C4)N5)c3CS2(=O)=O)c1C(F)(F)F` [Compound 18A, (7S)-7-(6-amino-4-methyl-3-(trifluoromethyl)pyridin-2-yl)-2-(((S)-2-(difluoromethylene)tetrahydro-1H-pyrrolazin-7a(5H)-yl)methoxy)-4-(3,8-diazabicyclo[3.2.1]octane-3-yl)-7,8-dihydro-5H-thiopyrano[4,3-d]pyrimidine-6,6-dioxide], the IC50 is at most 10 nM.

Consider `Cc1cc(N)nc(C2Cc3nc(OC[C@@]45CCCN4CC(=CF)C5)nc(N4CC5CCC(C4)N5)c3CS2(=O)=O)c1C(F)(F)F` (stereo partly drawn) [Compound 19, 7-(6-amino-4-methyl-3-(trifluoromethyl)pyridin-2-yl)-2-(((S)-2-(fluoromethylene)tetrahydro-1H-pyrrolazin-7a(5H)-yl)methoxy)-4-(3,8-diazabicyclo[3.2.1]octane-3-yl)-7,8-dihydro-5H-thiopyrano[4,3-d]pyrimidine-6,6-dioxide], for which the IC50 was at most 10 nM.

Consider `Cc1cc(N)nc([C@@H]2Cc3nc(OC[C@@]45CCCN4CC(=CF)C5)nc(N4CC5CCC(C4)N5)c3CS2(=O)=O)c1C(F)(F)F` [Compound 19A, (7S)-7-(6-amino-4-methyl-3-(trifluoromethyl)pyridin-2-yl)-2-(((S)-2-(fluoromethylene)tetrahydro-1H-pyrrolazin-7a(5H)-yl)methoxy)-4-(3,8-diazabicyclo[3.2.1]octane-3-y 1)-7,8-dihydro-5H-thiopyrano[4,3-d]pyrimidine-6,6-dioxide], for which the IC50 was at most 10 nM.

As for `C=C1CN2CCC[C@@]2(COc2nc3c(c(N4CC5CCC(C4)N5)n2)CS(=O)(=O)C(c2nc(N)cc(C)c2C(F)(F)F)C3)C1` (stereo partly drawn) [Compound 20, 7-(6-amino-4-methyl-3-(trifluoromethyl)pyridin-2-yl)-2-(((S)-2-(methylene)tetrahydro-1H-pyrrolazin-7a(5H)-yl)methoxy)-4-(3,8-diazabicyclo[3.2.1]octane-3-yl)-7,8-dihy dro-5H-thiopyrano[4,3-d]pyrimidine-6,6-dioxide], the IC50 is at most 10 nM.

In the case of `C=C1CN2CCC[C@@]2(COc2nc3c(c(N4CC5CCC(C4)N5)n2)CS(=O)(=O)[C@H](c2nc(N)cc(C)c2C(F)(F)F)C3)C1` [Compound 20A, (7S)-7-(6-amino-4-methyl-3-(trifluoromethyl)pyridin-2-yl)-2-(((S)-2-(methylene)tetra hydro-1H-pyrrolazin-7a(5H)-yl)methoxy)-4-(3,8-diazabicyclo[3.2.1]octane-3-yl)-7,8-dihydro-5H-thiopyrano[4,3-d]pyrimidine-6,6-dioxide], the IC50 was at most 10 nM.

With `CC#Cc1cc(N)c(F)c(C2Cc3nc(OC[C@@]45CCCN4C[C@H](F)C5)nc(N4CC5CCC(C4)N5)c3CS2(=O)=O)c1C(F)(F)F` (stereo partly drawn) [Compound 21, 7-(3-amino-2-fluoro-5-(prop-1-yn-1-yl)-6-(trifluoromethyl)phenyl)-4-(3,8-diazabicyclo[3.2.1]octane-3-yl)-2-(((2R,7AS)-2-fluorotetrahydro-1H-pyrrolazin-7a(5H)-yl)methoxy)-7,8-dihydro-5H-thiopyrano[4,3-d]pyrimidine-6,6-dioxide], the IC50 is at most 10 nM.

For `CC#Cc1cc(N)c(F)c([C@@H]2Cc3nc(OC[C@@]45CCCN4C[C@H](F)C5)nc(N4CC5CCC(C4)N5)c3CS2(=O)=O)c1C(F)(F)F` [Compound 21A, (7S)-7-(3-amino-2-fluoro-5-(prop-1-yn-1-yl)-6-(trifluoromethyl)phenyl)-4-(3,8-diazabicyclo[3.2.1]octane-3-yl)-2-(((2R,7AS)-2-fluorotetrahydro-1H-pyrrolazin-7a(5H)-yl)methoxy)-7,8-dihydro-5H-thiopyrano[4,3-d]pyrimidine-6,6-dioxide], the IC50 was at most 10 nM.

With `C=C1CN2CCC[C@@]2(COc2nc3c(c(N4CC5CCC(C4)N5)n2)CS(=O)(=O)C(c2c(F)c(N)cc(C#CC)c2C(F)(F)F)C3)C1` (stereo partly drawn) [Compound 22, 7-(3-amino-2-fluoro-5-(prop-1-yn-1-yl)-6-(trifluoromethyl)phenyl)-4-(3,8-diazabicyclo[3.2.1]octane-3-yl)-2-(((S)-2-(methylene)tetrahydro-1H-pyrrolazin-7a(5H)-yl)methoxy)-7,8-dihydro-5H-thiopyrano[4,3-d]pyrimidine-6,6-dioxide], the IC50 is at most 10 nM.
